In publication PMC3191281 (2011) one finds IC50 data, which are given here for one compound.

The target of the experiment is T1, CK1α (casein kinase Iα) (Homo sapiens, UniProt P48729).
T1 sequence (P48729 2-337): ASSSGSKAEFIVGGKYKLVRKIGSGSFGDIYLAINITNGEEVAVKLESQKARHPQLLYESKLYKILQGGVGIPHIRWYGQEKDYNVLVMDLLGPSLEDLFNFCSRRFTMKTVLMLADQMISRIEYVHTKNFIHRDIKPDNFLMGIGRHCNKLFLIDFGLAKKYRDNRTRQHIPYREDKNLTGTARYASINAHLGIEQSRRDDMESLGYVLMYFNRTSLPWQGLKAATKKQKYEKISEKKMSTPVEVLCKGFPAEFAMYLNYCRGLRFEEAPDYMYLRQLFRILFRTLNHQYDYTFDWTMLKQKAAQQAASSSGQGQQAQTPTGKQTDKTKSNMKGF
In words: TR-FRET. Format: biochemical. (In general: TR-FRET usually uses a lanthanide donor and a delayed reading to cut background.)

By IC50 is commonly meant the concentration at which inhibition is half-maximal. Higher therefore signals weaker potency in that assay. In turn, `CCCCCc1cc(/C=C2/N=C(c3ccc[nH]3)C=C2OC)[nH]c1C` [NSC 47147] registered an IC50 of 6 µM.
